The source of these data is US7989438B2, “Therapeutic compounds” (Istituto di Ricerche di Biologia Molecolare P. Angeletti SpA, priority 2007, dated 2011).

Each structure is given as a SMILES string.

For the first assay, the system named is HCV subgenomic replication. Nature of the assay: Cell based HCV replication assay (subgenomic replicon in Huh-7 cells, NS3 Cell-ELISA). The following applies: Hepatitis C virus, Huh-7; Table 3, various macrocycles; activity ranges; read-out: IC50* (nM), Inhibition of HCV subgenomic replication. The source says:
Cell clones that stably maintain subgenomic HCV replicon were obtained by transfecting Huh-7 cells with an RNA replicon identical to I377neo/NS3-3′/wt described by Lohmann et al. (1999) (EMBL-genbank No. AJ242652), followed by selection with neomycin sulfate (G418). Viral replication was monitored by measuring the expression of the NS3 protein by an ELISA assay performed directly on cells grown in 96 wells microtiter plates (Cell-ELISA) using the anti-NS3 monoclonal antibody 10E5/24 (as described in published International application WO 02/59321). Cells were seeded into 96 well plates at a density of 10^4 cells per well in a final volume of 0.1 ml of DMEM/10% FCS. Two hours after plating, 50 μl of DMEM/10% FCS containing a 3× concentration of inhibitor were added, cells were incubated for 96 hours and then fixed for 10 minutes with ice-cold isopropanol. Each condition was tested in duplicate and average absorbance values were used for calculations. The cells were washed twice with PBS, blocked with 5% non-fat dry milk in PBS+0.1% Triton X100+0.02% SDS (PBSTS) and then incubated o/n at 4° C. with the 10E5/24 mab diluted in Milk/PBSTS. After washing 5 times with PBSTS, the cells were incubated for 3 hours at room temperature with Fc specific anti-mouse IgG conjugated to alkaline phosphatase (Sigma), diluted in Milk/PBSTS. After washing again as above, the reaction was developed with p-Nitrophenyl phosphate disodium substrate (Sigma) and the absorbance at 405/620 nm read at intervals. For calculations, we used data sets where samples incubated without inhibitors had absorbance values comprised between 1 and 1.5. The inhibitor concentration that reduced by 50% the expression of NS3 (IC50) was calculated by fitting the data to the Hill equation, Fraction inhibition=1−(Ai−b)/(A0−b)=[I]^n/([I]^n+[…]) where: • Ai=absorbance value of HBI10 cells supplemented with the indicated inhibitor concentration. • A0=absorbance value of HBI10 cells incubated without inhibitor. • b=absorbance value of Huh-7 cells plated at the same density in the same microtiter plates and incubated without inhibitor. • n=Hill coefficient.
In general, IC50 refers to the concentration at which inhibition is half-maximal. On to `CN1C2CCN(CCN(C)S(=O)(=O)NC(=O)c3ccc4c(C5CCCCC5)c5n(c4c3)C[C@@H]1COc1ccccc1-5)C2` [Example 301, (18R)-29-cyclohexyl-10,17-dimethyl-20-oxa-9-thia-1,8,10,13,17-pentaazahexacyclo[16.9.1.1^2,6.1^3,27.1^13,16.0^21,26]hentriaconta-2(31),3,5,21,23,25,27(29)-heptaen-7-one 9,9-dioxide], for which the IC50 is < 25 nM.
In the case of `CN1CCN2CCCN(CC2)S(=O)(=O)NC(=O)c2ccc3c(C4CCCCC4)c4n(c3c2)C[C@@H]1COc1ccccc1-4` [Example 304, (20R)-31-cyclohexyl-21-methyl-18-oxa-2-thia-1,3,10,21,24-pentaazahexacyclo[22.3.2.1^5,9.1^8,11.1^10,20.0^12,17]dotriaconta-5(32),6,8,11(31),12,14,16-heptaen-4-one 2,2-dioxide], the half-inhibitory concentration (IC50) was < 25 nM.

Still in this assay, the particulars now being: Hepatitis C virus; Table A; activity ranges; Huh-7 replicon cells, 96 hours; read-out: IC50 (nM), Inhibition of HCV subgenomic replication.
On to `O=C1NS(=O)(=O)N2CCN(CCN3CC4(COc5ccccc5-c5c(C6CCCCC6)c6ccc1cc6n5C4)C3)CC2` [Compound A23, 31-cyclohexyl-8-oxa-24-thia-1,4,16,23,25-pentaazaheptacyclo[23.2.2.1^4,6.1^6,16.1^15,18.1^17,21.0^9,14]tritriaconta-9,11,13,15(31),17(30),18,20-heptaen-22-one 24,24-dioxide], for which the IC50 was 25 to 150 nM.
Still for that read-out and setting: with `CN1CCN2CCCC2CO[C@@H]2COc3ccccc3-c3c(C4CCCCC4)c4ccc(cc4n3C2)C(=O)NS1(=O)=O` (stereo partly drawn) [Compound A17, (20S)-31-cyclohexyl-10-methyl-19,22-dioxa-9-thia-1,8,10,13-tetraazahexacyclo[18.9.1.1^2,6.1^3,29.0^13,17.0^23,28]dotriaconta-2(32),3,5,23,25,27,29(31)-heptaen-7-one 9,9-dioxide] the figure was 25 to 150 nM.

Still in this assay, the particulars now being: Table 2, various macrocycles; activity ranges; read-out: IC50* (nM), Inhibition of HCV subgenomic replication.
As to `CCN1CCN(CCN(C)C)C2COc3c(C)cccc3-c3c(C4CCCCC4)c4ccc(cc4n3C2)C(=O)NS(=O)(=O)N(C)CC1` [Example 219, (7R)-14-cyclohexyl-24-[2-(dimethylamino)ethyl]-21-ethyl-4,18-dimethyl-7,8-dihydro-6H-7,11-(epiminoethanoiminoethanoiminothioiminomethano)-indolo[1,2-e][1,5]benzoxazocin-15-one 17,17-dioxide], the IC50 is < 25 nM.

The assay is the same for the next values; noted with them: Table 4, various macrocycles; activity ranges; read-out: IC50* (nM), Inhibition of HCV subgenomic replication.
Take `CC(C)N1CCN(C)C2COc3c(F)cccc3-c3c(C4CCCCC4)c4ccc(cc4n3C2)C(=O)NS(=O)(=O)N(C)CC1` [Example 405, (7R)-14-cyclohexyl-4-fluoro-21-isopropyl-18,24-dimethyl-7,8-dihydro-6H-7,11-(epiminoethanoiminoethanoiminothioiminomethano)-indolo[1,2-e][1,5]benzoxazocin-15-one 17,17-dioxide]: the IC50 is < 25 nM.
On to `CN1CCNCCN(C)S(=O)(=O)NC(=O)c2ccc3c(C4CCCCC4)c4n(c3c2)CC1COc1ccccc1-4` [Example 401, (7S)-14-cyclohexyl-18,24-dimethyl-7,8-dihydro-6H-7,11-(epiminoethanoiminoethanoiminothioiminomethano)-indolo[1,2-e][1,5]benzoxazocin-15-one 17,17-dioxide], for which the IC50 fell in the range of 25 to 150 nM.
With `C=CCc1cccc2c1OCC1Cn3c-2c(C2CCCCC2)c2ccc(cc23)C(=O)NS(=O)(=O)N(C)CCN(CC)CCN1C` [Example 403, (7R)-4-allyl-14-cyclohexyl-21-ethyl-18,24-dimethyl-7,8-dihydro-6H-7,11-(epiminoethanoiminoethanoiminothioiminomethano)-indolo[1,2-e][1,5]benzoxazocin-15-one 17,17-dioxide], the IC50 is 25 to 150 nM.
Same read-out and setting: in the case of `CN1CCNCCN(C)S(=O)(=O)NC(=O)c2ccc3c(C4CCCCC4)c4n(c3c2)C[C@@H]1COc1c(CN2CCOCC2)cccc1-4` [Example 410, (7R)-14-cyclohexyl-18,24-dimethyl-4-(morpholin-4-ylmethyl)-7,8-dihydro-6H-7,11-(epiminoethanoiminoethanoiminothioiminomethano)-indolo[1,2-e][1,5]benzoxazocin-15-one 17,17-dioxide] it was 25 to 150 nM.

The assay is the same for the next values; noted with them: Table 5, various macrocycles; activity ranges; read-out: IC50* (nM), Inhibition of HCV subgenomic replication.
Regarding `Cc1cccc2c1OCC1Cn3c-2c(C2CCCCC2)c2ccc(cc23)C(=O)NS(=O)(=O)N(C)CCN(C)CCN1C` [Example 516, (7R)-14-cyclohexyl-4,18,21,24-tetramethyl-7,8-dihydro-6H-7,11-(epiminoethanoiminoethanoiminothioiminomethano)-indolo[1,2-e][1,5]benzoxazocin-15-one 17,17-dioxide], the IC50 was < 25 nM.
For the molecule `Cc1cccc2c1OCC1CCN(CCN(C)C)CCCN(C)S(=O)(=O)NC(=O)c3ccc4c(C5CCCCC5)c-2n(c4c3)C1` [Example 522, (7R)-14-cyclohexyl-22-[2-(dimethylamino)ethyl]-4,18-dimethyl-7,8-dihydro-6H-7,11-(ethanoiminopropanoiminothioiminomethano)indolo[1,2-e][1,5]benzoxazocin-15-one 17,17-dioxide], the IC50 is < 25 nM.
Still for that read-out and setting: with `CC(C)N1CCCC2COc3ccccc3-c3c(C4CCCCC4)c4ccc(cc4n3C2)C(=O)NS(=O)(=O)N(C)CC1` (stereo not shown) [Example 509, 14-cyclohexyl-21-isopropyl-18-methyl-7,8-dihydro-6H-7,11-(propanoiminoethanoiminothioiminomethano)indolo[1,2-e][1,5]benzoxazocin-15-one 17,17-dioxide] the figure was < 25 nM.
Same read-out and setting: in the case of `Cc1cccc2c1OC[C@@H]1CCCN(C)CCN(C)S(=O)(=O)NC(=O)c3ccc4c([C@H]5CCCC[C@@H]5F)c-2n(c4c3)C1` [Example 513, (7R)-14-[(1R,2S)-2-fluorocyclohexyl]-4,18,21-trimethyl-7,8-dihydro-6H-7,11-(propanoiminoethanoiminothioiminomethano)indolo[1,2-e][1,5]benzoxazocin-15-one 17,17-dioxide] it was < 25 nM.

Staying with this assay, now noted: Table A; activity ranges; Huh-7 replicon cells, 96 hours; read-out: IC50 (nM), Inhibition of HCV subgenomic replication.
With `CN1CCN(C)C2COc3cc(F)ccc3-c3c(C4CCCCC4)c4ccc(cc4n3C2)C(=O)NS(=O)(=O)N(C)CC1` [Compound A11, (7R)-14-cyclohexyl-3-fluoro-18,21,24-trimethyl-7,8-dihydro-6H-7,11-(epiminoethanoiminoethanoiminothioiminomethano)indolo[1,2-e][1,5]benzoxazocin-15-one 17,17-dioxide], the IC50 was < 25 nM.
Still for that read-out and setting: with `CN1CCCN(C)S(=O)(=O)NC(=O)c2ccc3c(C4CCCCC4)c4n(c3c2)CC(CC1)COc1ccccc1-4` (single isomer, unassigned; (-)) [Compound A14, (−)-14-cyclohexyl-18,22-dimethyl-7,8-dihydro-6H-7,11-(ethanoiminopropanoiminothioiminomethano)indolo[1,2-e][1,5]benzoxazocin-15-one 17,17-dioxide] the figure was < 25 nM.
For `CN1CCNCCN(C)S(=O)(=O)NC(=O)c2ccc3c(C4CCCCC4)c4n(c3c2)CC1COc1ccccc1-4` [Compound A15, (7S)-14-cyclohexyl-18,24-dimethyl-7,8-dihydro-6H-7,11-(epiminoethanoiminoethanoiminothioiminomethano)indolo[1,2-e][1,5]benzoxazocin-15-one 17,17-dioxide], the half-inhibitory concentration (IC50) was in the range of 150 to 500 nM.
On the same count and under the same terms, with `COc1ccc2c(c1)OCC1CCCN(C)CCN(C)S(=O)(=O)NC(=O)c3ccc4c(C5CCCCC5)c-2n(c4c3)C1` (single isomer, unassigned; (-)) [Compound A37, (−)-14-cyclohexyl-3-methoxy-18,21-dimethyl-7,8-dihydro-6H-7,11-(propanoiminoethanoiminothioiminomethano)indolo[1,2-e][1,5]benzoxazocin-15-one 17,17-dioxide] the figure was < 25 nM.
The same measure, in the same setting: with `CN1CCOCC2COc3ccccc3-c3c(C4CCCCC4)c4ccc(cc4n3C2)C(=O)NS(=O)(=O)N(C)CC1` (single isomer, unassigned) [Compound A39, (7R or 7S)-14-cyclohexyl-18,21-dimethyl-7,8-dihydro-6H-7,11-(methanooxyethanoiminoethanoiminothioiminomethano)indolo[1,2-e][1,5]benzoxazocin-15-one 17,17-dioxide] the figure was < 25 nM; with `CN1CCNCCN(C)S(=O)(=O)NC(=O)c2ccc3c(C4CCCCC4)c4n(c3c2)CC1COc1ccccc1-4` [Compound A1, (7R)-14-cyclohexyl-18,24-dimethyl-7,8-dihydro-6H-7,11-(epiminoethanoiminoethanoiminothioiminomethano)indolo[1,2-e][1,5]benzoxazocin-15-one 17,17-dioxide], < 25 nM.
